Test results from patent publication US20080152714A1, “Pharmaceutical Formulations” (priority 2005, published 2008).
Read-outs that look alike come from different tables or passages of the source.

Columns and labels:
[1] = Solubility of fenofibric acid salts in water at 25° C.; assay type: physicochemical
Description: Solubility Determination: Solubility values of fenofibric acid salts in water were determined at 25° C. The salts were weighed into glass vials and water was added. The suspensions were rotated from end to end for about 2 days in a 25° C. water bath. The pH of the suspensions was measured. The residual solid was then removed via filtration through a 0.45 μm PTFE membrane filter. The resulting saturated solution was diluted appropriately into the HPLC mobile phase, and analyzed by the HPLC assay described below (Table 3). The powder x-ray diffraction pattern of the collected residual solid was recorded at the end of experiment.

[2] = Intrinsic dissolution rate (IDR); assay type: physicochemical; conditions: pH 6.8, 50 mM sodium citrate buffer, 37° C.
Description: The intrinsic dissolution rate is the rate of dissolution of pharmaceutically acceptable ingredients when conditions such as surface area, agitation or stirring speed, pH and ionic strength of the dissolution medium are held constant.
Pellets of the salts were prepared by compressing ca. 100 mg of the compound in a stainless steel die under 1300 pounds force with a dwell time of one minute. The die containing the tablet was submerged in 400 mL of the dissolution medium at 37° C. The solution was stirred by a paddle at ˜60 rpm. At each time point, 3 mL of sample was withdrawn and filtered. After discarding the first half of the filtrate, the remainder was collected and assayed by HPLC method above. The total volume of the dissolution medium was kept at a constant by replenishing the lost volume at each data point with fresh buffer at 37 C.

With C[N+](C)(C)CCO [Choline] the solubility ([1]; read-out: Solubility) was > 300000 µg/mL and the IDR [2] was 14.50 mg/min/cm^2.
NCCO [Ethanolamine] showed an IDR [2] of 8.05 mg/min/cm^2.
In the case of CC(C)(Oc1ccc(C(=O)c2ccc(Cl)cc2)cc1)C(=O)O [Free acid, 2-[4-(4-chlorobenzoyl)phenoxy]-2-methyl-propanoic acid, reference compound], the solubility ([1]; read-out: Solubility) was 265 µg/mL and the IDR [2] was 0.30 mg/min/cm^2.
CN(C)C(=N)N=C(N)N [Metformin] gave an IDR [2] of 7.09 mg/min/cm^2.
With CCN(CC)CCOC(=O)c1ccc(N)cc1 [Procaine] the solubility ([1]; read-out: Solubility) was 7200 µg/mL and the IDR [2] was 1.06 mg/min/cm^2.
In the case of Calcium, the IDR [2] was 0.10 mg/min/cm^2.
With Tris the solubility [1] was 5450 µg/mL and the IDR [2] was 0.67 mg/min/cm^2.
